Results as given in patent publication US20210059933A1, “HYDROGELS AS ORAL DELIVERY DOSAGE FORMS, METHODS OF MAKING AND USING SAME” (priority 2019, published 2021).

Columns and labels:
[1] = drug by itself; cited from earlier work
[2] = lipophilic partition coefficient of the drug; cited from earlier work
[3] = Release of drug from drug-loaded disintegrating hydrogel into simulated gastric fluid, supersaturation by UV-vis; settings: 2 hours, 150 rpm, hydrogel from 25% by volume acetal cross-linker, drug loading as in % wt drug
Experimental: A disintegrating hydrogel is first formed from 0.125 mL of a solution of dimethylformamide containing 25% by volume of the cross-linker triethylene glycol di[ethyl-1-methacryloyloxy poly(ethylene glycol) acetal] and 5% by volume of the photoinitiator 2-hydroxy-2-methylpropiophenone then purified by washing several times in ethanol. This disintegrating hydrogel is then transferred to the same solvent used to maximize the dissolution of the active pharmaceutical ingredient of interest. The hydrogel is transferred to a silicone mold and heated for a minimum amount of time to evaporate a majority of the solvent soaked into the hydrogel pores. Then about 0.1 mL of a solution of the active pharmaceutical ingredient solubilized in the preferred solvent is added to the silicone mold containing the hydrogel, which is allowed to swell in order to absorb the solution. Once absorbed, the solvent is removed in a vacuum oven in order to induce the crystallization of the active pharmaceutical ingredient in the hydrogel pores. The mass of the active pharmaceutical ingredient contained in the disintegrating hydrogel is determined experimentally then normalized by the combined mass of both components to quantify the weight fraction of the active pharmaceutical ingredient.
The hydrogel is added to the vial and allowed to dissolve over the course of 2 hours. The presence of the active pharmaceutical ingredient in the aqueous solution is monitored by ultraviolet-visible spectrometry to quantify the concentration relative to the inherent solubility of the active pharmaceutical ingredient without a hydrogel present. The ratio of the solubility achieved upon release from disintegrating hydrogels to the solubility achieved upon dissolution without disintegrating hydrogels is the supersaturation.

[4] = Dissolution of drug encapsulated in acid-hydrolysable hydrogels in 0.1M HCl solution (pH=1); type: physicochemical; settings: immediate release acid-hydrolysable hydrogels
Description: FIG. 3 is a dissolution profile of vitamin E (tocopherol) encapsulated at various drug loading levels in hydrogels composed of 25% by volume acetal cross-linker into a 0.1M HCl solution (pH=1).
The hydrogel labelled acetal hydrogel [w/ 10% surfactant] {w/ 15% surfactant} were synthesized by polymerizing a pre-cursor solution containing 25% [20%] {20%} by volume of the triethylene glycol di[ethyl-1-methacryloyloxy poly(ethylene glycol) acetal] cross-linker, 0% [3.9%] {3.9%} by volume of methyl methacrylate, 0% [6.1%] {6.1%} by volume of dimethylaminoethyl methacrylate, and 0% [10%] {15%} by volume of a hydrolytically hydrolysable surfactant monomer: acetaldehyde-(stearyl PEG-20 ether)-(acrylate ethylene glycol) acetal. Each drug substance is loaded into the pores of the hydrogel by first dissolving in ethanol and adding the organic solution into a silicone mold containing the pre-formed and washed hydrogel followed by evaporation of the solvent. Sufficient drug substance solution is added to the mold to reach a range of drug loading values.

Compound | C_s (aqueous solubility) [1] | log P [2] | X_sat (supersaturation: ratio of solubility achieved upon release from disintegrating hydrogels to solubility without hydrogels) [3] | supersaturation level of final concentration [4]
COC1=C(OC)C(=O)C(C/C=C(\C)CC/C=C(\C)CC/C=C(\C)CC/C=C(\C)CC/C=C(\C)CC/C=C(\C)CC/C=C(\C)CC/C=C(\C)CC/C=C(\C)CCC=C(C)C)=C(C)C1=O [Coenzyme Q10] | 0.2 µg/mL | 9.9 | 69.1 | 
CCCSc1ccc2nc(NC(=O)OC)[nH]c2c1 [albendazole] | 22.8 µg/mL | 2.7 | 2.01 | 
C[C@@H]1[C@H](O)[C@@H](C)/C=C/C=C/C=C/C=C/C=C/C=C/C=C/[C@H](O[C@@H]2O[C@H](C)[C@@H](O)[C@H](N)[C@@H]2O)C[C@@H]2O[C@](O)(C[C@@H](O)C[C@@H](O)[C@H](O)CC[C@@H](O)C[C@@H](O)CC(=O)O[C@H]1C)C[C@H](O)[C@H]2C(=O)O [amphotericin b] | 82 µg/mL | 0.8 | 13.8 | 
C=C(C)[C@@H]1CCC(C)=C[C@H]1c1c(O)cc(CCCCC)cc1O [cannabidiol (CBD), cannabidiol] |  |  | 22.3 | 
CC(C)/N=c1\cc2n(-c3ccc(Cl)cc3)c3ccccc3nc-2cc1Nc1ccc(Cl)cc1 [clofazimine] | 0.23 µg/mL |  |  | 
CC/C=C\C/C=C\C/C=C\C/C=C\C/C=C\CCCC(=O)O [eicosapentaenoic acid] | 0.29 µg/mL | 6.1 |  | 
CCCCN(CCCC)CC(O)c1cc(Cl)cc2c1-c1ccc(Cl)cc1/C2=C/c1ccc(Cl)cc1 (centres unmarked) [lumefantrine] | 0.04 µg/mL | 8.34 |  | 
C[C@H]1C[C@@H]2[C@H]([C@@H](O)C[C@@]3(C)[C@H]2CC[C@]3(O)C(=O)CO)[C@@]2(C)C=CC(=O)C=C12 [methylprednisolone] |  | 1.53 |  | 
Cc1cn(-c2cc(NC(=O)c3ccc(C)c(Nc4nccc(-c5cccnc5)n4)c3)cc(C(F)(F)F)c2)cn1 [nilotinib] | 2.01 µg/mL | 4.51 |  | 
Cc1ccc(Nc2nccc(N(C)c3ccc4c(C)n(C)nc4c3)n2)cc1S(N)(=O)=O [pazopanib] | 43.3 µg/mL | 3.59 |  | 
CC(=O)[C@H]1CC[C@H]2[C@@H]3CCC4=CC(=O)CC[C@]4(C)[C@H]3CC[C@]12C [progesterone] | 5.5 µg/mL |  |  | ≤ 11 times the intrinsic solubility
tocopherol [tocopherol (vitamin E)] |  |  |  | up to 74 times the intrinsic solubility
